Assay results reported in article PMC8850458, “The AUTOTAC chemical biology platform for targeted protein degradation via the autophagy-lysosome system” (Nature Communications, 2022).
Where “and” joins values, the source holds several entries; their conditions need not be identical. Identical values can stand only once.

What was measured:
wild-type desmin = molecular target: T1, wild-type desmin (Homo sapiens, UniProt P17661); test: WB degradation of wild-type desmin in HeLa cells; format: cell-based; conditions: exogenously expressed
T1 construct: expressed in transfected cells; host or cells: HeLa, transient
T1 sequence (P17661 whole entry): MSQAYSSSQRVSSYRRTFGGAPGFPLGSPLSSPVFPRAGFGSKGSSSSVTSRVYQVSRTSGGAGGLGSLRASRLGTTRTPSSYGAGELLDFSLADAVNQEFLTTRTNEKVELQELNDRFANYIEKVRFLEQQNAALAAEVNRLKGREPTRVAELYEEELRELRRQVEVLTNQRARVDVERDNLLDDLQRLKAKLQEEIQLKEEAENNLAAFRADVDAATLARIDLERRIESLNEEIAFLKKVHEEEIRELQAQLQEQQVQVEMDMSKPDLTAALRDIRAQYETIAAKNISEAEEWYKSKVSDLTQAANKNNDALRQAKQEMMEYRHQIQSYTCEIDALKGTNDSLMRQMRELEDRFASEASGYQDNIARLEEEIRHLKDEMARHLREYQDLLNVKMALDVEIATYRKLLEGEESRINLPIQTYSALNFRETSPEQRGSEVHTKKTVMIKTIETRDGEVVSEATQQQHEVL
Procedure: Adherent cells were washed with phosphate-buffered saline (PBS) and cell pellets were lysed in SDS-based sample buffer (277.8 mM Tris-HCI, pH 6.8, 4.4% LDS, 44.4% (v/v) glycerol) containing beta-mercaptoethanol. Alternatively, cell pellets or protein supernatants were lysed in 5X Laemmli sample buffer. Whole-cell lysates were separated using SDS-PAGE, and transferred onto polyvinyllidene difluoride membranes at 100 V for 2 h at 4 °C. The membrane was incubated with a blocking solution consisting 4% skim milk in PBS solution for 30 min at room temperature and incubated with primary antibodies overnight, followed by incubation with host-specific HRP-conjugated secondary antibodies (1:10000 dilution). For signal detection, the membrane was developed with a mixture of ECL solution (Thermo Fisher Scientific) using X-ray films. Densitometry of developed bands was measured and analyzed with ImageJ (NIH, Bethesda).
Supplementary Fig. 5. AUTOTACs selectively target pathological aggregation-prone proteins for autophagic degradation. (a) WB in HEK293T cells treated with PBA-1105 (1 μM) and MG132 (1 μM, 24 h) at the indicated time points. (b) ICC of HeLa cells treated with the indicated compounds (1 μM, 24 h). Scale bar, 10 μm. (c) WB in HEK293T cells treated with PBA-1105 (500 nM, 24 h) and MG132 (1 μM, 24 h) under siRNA-mediated knockdown of p62 or ATG7 (20 nM, 48 h). (d) ICC in HeLa cells transiently expressing WIPI2-GFP and treated with Anle138b-F105 (1 μM, 24 h). Scale bar, 10 μm. (e) ICC in HeLa cells treated with […]
nM, 24 h). (g, h) WB in HeLa cells transiently expressing wild type or mutant (L385P) desmin-flag with LacZ-myc and treated with PBA-1105, PBA-1105b or Anle138b-F105 at the […]

tauP301L = tauP301L (Homo sapiens, UniProt P10636, P618L); test: RIPA insoluble/soluble fractionation of brains of hTauP301L-BiFC mice, human tau; conditions: for AVG (%) Insoluble hTau / AVG (%) Soluble hTau: control 100
Sequence of tauP301L (P10636 1-441 isoform P10636-8 P301L): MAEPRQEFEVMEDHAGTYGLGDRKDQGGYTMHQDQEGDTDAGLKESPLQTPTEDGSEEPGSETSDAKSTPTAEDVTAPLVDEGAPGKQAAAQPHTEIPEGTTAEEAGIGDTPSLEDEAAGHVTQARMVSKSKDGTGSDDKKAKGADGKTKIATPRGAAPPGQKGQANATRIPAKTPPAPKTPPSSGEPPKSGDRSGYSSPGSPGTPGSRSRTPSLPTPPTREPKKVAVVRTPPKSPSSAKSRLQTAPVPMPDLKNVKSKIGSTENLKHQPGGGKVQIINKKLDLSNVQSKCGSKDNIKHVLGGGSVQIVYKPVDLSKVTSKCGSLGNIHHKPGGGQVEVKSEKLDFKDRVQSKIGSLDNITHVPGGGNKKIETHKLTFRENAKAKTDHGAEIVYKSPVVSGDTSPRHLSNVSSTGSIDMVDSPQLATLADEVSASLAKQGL

[1] = test system: RFP-GFP-hTauP301L pre-formed inclusion bodies; test: ICC of mRFP-GFP-hTauP301L inclusion bodies (puncta, GFP/RFP ratio) in HeLa cells; format: cell-based; conditions: Fig. S6i, PBA-1105 given with O.A.
Procedure: Cells were cultured on coverslips coated with poly-L-lysine (Sigma) to observe cellular localization of proteins. Using 4% paraformaldehyde in PBS (pH 7.4), the cells were fixed for 15 min at room temperature and washed three times for 5 min with PBS. After fixing, the cells were permeabilized with 0.5% Triton X-100 in PBS solution for 15 min and washed three times with PBS for 5 min. The cells were blocked containing 2% BSA in PBS solution for 1 h at room temperature. Subsequently, the cells were incubated with primary antibody diluted in 2% BSA/PBS solution overnight at 4 °C, followed by washing the cells three times for 10 min with PBS and incubated with Alexa Fluor-conjugated secondary antibody diluted in 2% BSA/PBS for 30 min at room temperature. Using a DAPI-containing mounting medium (Vector Laboratories), the coverslips were mounted on glass slides. Confocal images were taken by laser scanning confocal microscope 510 Meta (Zeiss) and analyzed by Zeiss LSM Image Browser (ver. 4.2.0.121). […] Quantification results are shown as mean ± S.D. or S.E.M. of three independent experiments […]
Supplementary Fig. 6. […]
(0.1 μM, 24 h). (h) ICC in HeLa cells transiently expressing mRFP-GFP-hTauP301L and treated with okadaic acid (15 nM, 24 h) prior to the presence or absence of PBA-1105 (100 nM, […]
24 h). Scale bar, 10 µm. (i) Quantification of h for punctate formation and GFP/RFP ratio (n=3 biologically independent experiments each counting 50 cells and 10 puncta within one image).
Data are presented as mean values ± SD for aggregate formation and as mean values ± SEM […]
for GFP/RFP ratio. […]
(1 µM, 24 h) or negative control. P-values (from a two-sided unpaired t-test): **P < 0.00662 (for tau aggregate formation), **P < 0.00779 (for GFP/RFP ratio). Source data are provided

[2] = molecular target: T2, tau oligomers (htauP301L-BiFC bodies) and phosphorylated tau-BiFC (Homo sapiens, UniProt P10636, P618L); test: Immunohistochemistry of BiFC and AT8 fluorescence in brains of hTauP301L-BiFC mice; format: in vivo; conditions: for Sudan black B AVG CA1: control 32.0843; for Sudan black B AVG Cortex: control 98.7415; for AT8 AVG CA1 / AT8 AVG % CA1 / AT8 AVG % Cortex / AT8 AVG Cortex / AT8 CA1, per animal / AT8 Cortex, per animal: Fig. 6l; for AT8 AVG CA1: control 95.3926; for AT8 AVG Cortex: control 109.457; for AT8 CA1, per animal: control AVG 95.3926; for AT8 Cortex, per animal: control AVG 109.457
T2 construct: from tissue; host or cells: brain of 9-month-old hTauP301L-BiFC transgenic mice (C57BL/6)
T2 sequence (P10636 1-441 isoform P10636-8 P301L): as above

## O=C(CCCc1ccccc1)NCCOCCOCCOCCNCc1ccc(OCc2ccccc2)c(OCc2ccccc2)c1 [PBA-1105]
wild-type desmin
  degradation of wild-type desmin: not wild-type desmin
tauP301L; 20 mg/kg
  AVG (%) Insoluble hTau: 43.8995%
  AVG (%) Soluble hTau: 87.1538%
tauP301L; 50 mg/kg
  AVG (%) Insoluble hTau: 10.5836%
  AVG (%) Soluble hTau: 66.7118%
tauP301L; hTauP301L-BiFC mice, i.p. 20 or 50 mg/kg
  soluble tau species in brain: little if any reduction
tauP301L; hTauP301L-BiFC mice, i.p. 20 or 50 mg/kg, three times per week for one month
  detergent-insoluble tauP301L in brain: marked clearance
[1]; con 1.00467
  AVG GFP/RFP ratio per puncta, total AVG: 0.4057
[1]; con 100
  AVG GFP/RFP ratio per puncta, relative % AVG: 40.3782%
[1]; n=1 to n=3
  AVG GFP/RFP ratio per puncta, AVG per experiment: 0.551 and 0.37 and 0.296
[1]; RFP-GFP-TauP301L, con 4.33333
  puncta formation of cells with AVG RFP/GFP ratio < 0.5, AVG of cells per 50 cells: 30.3333
[1]; RFP-GFP-TauP301L, con 8.66667
  puncta formation of cells with AVG RFP/GFP ratio < 0.5, percentage AVG: 60.6667
[1]; RFP-GFP-TauP301L, single experiments
  puncta formation of cells with AVG RFP/GFP ratio < 0.5, cells counted per 50 cells: 33 and 37 and 21
[2]; Fig. 6k, 20 mg/kg
  Sudan black B AVG CA1: 24
  Sudan black B AVG Cortex: 61.9321
[2]; Fig. 6k, 50 mg/kg
  Sudan black B AVG CA1: 34.5914
  Sudan black B AVG Cortex: 38.2621
[2]; Fig. 6k, 50 mg/kg, control 100
  Sudan black B AVG % CA1: 107.814%
[2]; 20 mg/kg
  AT8 AVG CA1: 71.2628
  AT8 AVG Cortex: 84.9698
  AT8 CA1, per animal: 75.563 and 74.477 and 82.816 and 64.806 and 58.652
  AT8 Cortex, per animal: 72.808 and 80.823 and 112.523 and 115.092 and 43.603
[2]; 20 mg/kg, control 100
  AT8 AVG % CA1: 74.7047%
  AT8 AVG % Cortex: 77.6283%
[2]; 50 mg/kg
  AT8 AVG CA1: 65.5443
  AT8 AVG Cortex: 68.181
  AT8 CA1, per animal: 51.948 and 69.287 and 60.135 and 88.15 and 58.518 and 65.228
  AT8 Cortex, per animal: 68.316 and 68.839 and 67.094 and 66.047 and 57.905 and 80.885
[2]; 50 mg/kg, control 100
  AT8 AVG % CA1: 68.7101%
  AT8 AVG % Cortex: 62.2901%
[2]; cortex and CA1 region
  soluble bodies of phosphorylated tau-BiFC (AT8 staining): marked eradication
[2]; hTauP301L-BiFC mice, dosage-dependent
  total tau oligomers (BiFC) in cortex and CA1 region of hippocampus: drastic reduction
